What was measured:
[1] = Hydrogel formation, inverted test tube analysis; assay type: physicochemical; conditions: for Concentration at which self-supporting hydrogel is obtained: sonication
Description: Peptide solutions were dissolved in PBS at concentrations varying from 2.0 μM to 2.0 mM. To allow a complete dissolution, samples were sonicated for 15 min. Hydrogels were prepared by adding PBS to the peptide powder to a final concentration of 2 or 3 wt %. After sonication, samples were stored at 4 °C overnight and the hydrogel formation was macroscopically evaluated through inverted test tube analyses.
Self-supporting hydrogels of L1-L2 and of L1-L2-L3 were obtained starting from a concentration of 2 wt % when 10 mM PBS was used in place of water (inverted test tube, Figure a). […] From a biomedical perspective, achieving gelation at lower peptide concentrations is highly desirable to minimize potential cytotoxicity and facilitate in vivo applications. […] This sequence, in comparison to the L1 and L2 motifs, features a higher content of glycine residues and a single tyrosine, while L1 and L2 each contain two. The different behavior of L3 might therefore arise from a reduced number of π–π stacking interactions, a known driving factor in the gelation process, or the higher entropic cost associated with glycine residues.

[2] = Rheological studies of hydrogels as a function of temperature; assay type: physicochemical; conditions: amplitude 0.1%, frequency 1 Hz; for G′ (storage modulus) upon cooling back to 4 °C / G′ (storage modulus) upon heating to 80 °C / G′ (storage modulus), initial value at 4 °C: 2 wt % hydrogel in PBS; for G′ (storage modulus) upon cooling back to 4 °C: after cooling ramp 80 to 4 °C; for G′ (storage modulus) upon heating to 80 °C: end of heating ramp 4 to 80 °C; for G′ (storage modulus), initial value at 4 °C: start of heating ramp 4 to 80 °C
Description: Rheological measurements of freshly preformed hydrogels (1000 μL) were performed with a rotational controlled-stress Haake Mars 40 rheometer (Thermo Fisher, Germany) by using a 3.5 cm diameter flat-plate geometry (P35/TI) with a gap of 0.5 mm. The analyses were conducted at different temperatures increasing from 4 to 80 °C and then decreasing from 80 to 4 °C. Amplitude (γ) was set at 0.1% and Frequency 1 Hz. G′ (storage modulus) and G″ (loss modulus) are reported as a function of the temperature.
To study the mechanical behavior of the matrices, hydrogels from L1-L2-L3 and L1-L2 sequences were subjected to rheological measurements. The storage (G′) and loss (G″) moduli, two key parameters describing the viscoelastic behavior of materials, were studied as a function of the temperature. Measurements were conducted across the entire temperature range, increasing from 4 to 80 °C and subsequently decreasing from 80 to 4 °C. […] However, the heating/cooling process induced significant increase in the rigidity of both samples. […] For the L1-L2 sample, the initial values of G′ at these temperatures were 1 Pa at 4 °C, 32 Pa at 80 °C, and 7314 Pa upon cooling back at 4 °C. To enhance the hydrogel disaggregation response to temperature increase, we adopted a design strategy focused on incorporating disruptive elements into the peptide sequences. This approach stems from the insights that the L3 sequence has the potential to inhibit the aggregation of the multi-LARK peptides. Following this rationale, we initially synthesized a multi-LARK sequence made of L3-L2-L3 LCDs (Figure S13a).

[3] = Hydrogel stability in contact with acidic and basic solutions; assay type: physicochemical; conditions: preformed hydrogels, room temperature, macroscopically observed up to 7 days
Description: To address the impact of the primary sequence on the hydrogel’s sensitivity to external stimuli, their mechanical behavior as a response to pH and temperature triggers was tested. Preformed L1-L2 and L1-L2-L3 hydrogels were put in contact with both acidic (pH 5) and basic (pH 10) solutions at room temperature and were macroscopically observed over time up to 7 days. […] This behavior can be rationalized considering that the presence of ionizable acidic or basic amino acids typically drives pH-responsive properties in peptide-based systems. In our case, the sequences contain only a single acidic residue (Asp, D), which is located within the linker region rather than in the LARKS domains considered to be responsible for driving the gelation process.

[4] = Critical aggregation concentration (CAC) by intrinsic self-fluorescence; assay type: physicochemical; conditions: 10 mM PBS pH 7.4, no external probe, excitation 310 nm, emission intensity at 407 or 417 nm vs concentration, break point, 20 °C
Description: A Shimadzu RF-6000 (Kyoto, Japan) spectrofluorometer was used to perform fluorescence measurements. Samples were placed in a 10.0 mm × 5.00 mm quartz cell and the settings used for the measurement were excitation and emission bandwidths of 2.5 nm and temperature of 20 °C. The critical aggregation concentration (CAC) of the peptides was estimated through the evaluation of the self-fluorescence behavior of the peptides. After excitation at 310 nm, the intensity of the emission band at 407 or 417 nm was checked and plotted as a function of concentration. Spectra were also recorded in excitation mode.
The ability of the multi-LARKS to self-assemble was evaluated in physiological buffer conditions (10 mM PBS, pH 7.4). Critical aggregation concentrations (CACs), designated as the minimum concentrations at which they spontaneously self-assemble, were assessed in the absence of any external fluorescence probe and by detecting the nonaromatic intrinsic self-fluorescence at increasing peptide concentrations. […] All the multi-LARK sequences here studied presented a near-UV emission, with a maximum of excitation at 310 nm.
By plotting the fluorescence intensity at the maximum emission wavelength as a function of concentration, CAC values, calculated at the break point, resulted 128 μM, 236 μM, 153 μM and 175 μM for L1-L2-L3, L1-L2, L1-L3, and L2-L3, respectively (see Table S2). […]

[5] = Aggregation kinetics followed by self-fluorescence in microplate reader; assay type: physicochemical; conditions: 2.0 mM peptide in PBS; λex 355 nm, emission 460 nm over 300 h; 96-well plate, orbital shake 200 rpm; triplicate
Description: Aggregation kinetics of peptide samples at 2.0 mM were followed by using a FLUOstar Omega (BMG LABTECH) microplate reader. Aliquots of 100 μL of each sample were placed in wells of a 96-well plate and covered with an aluminum foil to avoid evaporation of the solvent. Experimental settings were: λex = 355 nm, gain 1000, bottom optic, orbital shake 200 rpm between readings. Emission intensity at 460 nm was recorded over 300 h and subtracted for the blank. Experiments were conducted in triplicate.
The aggregation kinetics of the four multi-LARK sequences were monitored using fluorescence experiments, by exploiting the photoemissive behavior of the peptides in the blue field. As the fluorescence emission of these sequences require the aggregation state, as shown by the analyses conducted in solution, it represents a convenient probe of the self-assembly process. Upon excitation at 355 nm of 2.0 mM peptide solutions, the emission at 460 nm was recorded across a 300 h period (Figure S9). By reporting the fluorescence intensity as a function of time, we observed consistent trends across the four multi-LARKS samples, characterized by three different kinetic phases. […] This lag-phase was followed by a linear increase of the fluorescence signal at 460 nm in a relatively short period for all the samples (between 5 and 30 h) except in the case of L1-L2, where this second phase was longer (∼80 h). […]

[6] = dissolved in water, overnight incubation at 4 °C; ref Eisenberg and co-workers; cited from earlier work

Substance | Concentration at which self-supporting hydrogel is obtained ([1]; 10 mM PBS, overnight at 4 °C) | G′ (storage modulus) upon cooling back to 4 °C [2] | G′ (storage modulus) upon heating to 80 °C [2] | G′ (storage modulus), initial value at 4 °C [2] | Hydrogel stability to acidic (pH 5) and basic (pH 10) solutions [3] | Critical aggregation concentration (CAC) [4] | Lag-phase duration (constant fluorescence intensity) of aggregation kinetics [5] | further results
Ac-STGGYGGDTSYSSYGQSNGPSTGGYG-NH2 [L3-L2-L3] |  |  |  |  |  |  |  | Hydrogel formation ([1]; concentrations ranging from 2 to 5 wt %): unable to form hydrogels
Ac-STGGYSGDTSYSSYGQS-NH2 [L1**-L2] | 3 wt % |  |  |  |  |  |  | Temperature at which hydrogel undergoes breakdown (unable to reform upon cooling) ([2]; 3 wt % hydrogel in PBS, heating 4 to 80 °C): 55 °C
Ac-SYGGYSGDTSYSSYGQS-NH2 [L1*-L2] | 2 wt % | 154332 Pa | 497 Pa | 818 Pa |  |  |  | 
Ac-SYSGYSGDTSYSSYGQS-NH2 [L1-L2] |  |  |  |  | No significant variations |  |  | Emission maximum of aggregation-induced fluorescence: 400 nm
Ac-SYSGYSGDTSYSSYGQSNGPSTGGYG-NH2 [L1-L2-L3] | ≥ 2 wt % | 75762 Pa | 4708 Pa | 1967 Pa | No significant variations | 128 µM | ~50 h | Concentration at which hydrogel forms in water [6]: 5 wt %
Ac-SYSGYSNGPSTGGYG-NH2 [L1-L3] |  |  |  |  |  | 153 µM | ~50 h | Hydrogel formation ([1]; 10 mM PBS, overnight at 4 °C): no gel formation

— PMC12516689, “Stimuli-Responsive Hydrogels from Liquid–Liquid Phase Separations of FUS-Derived Peptides” (ACS Applied Materials & Interfaces, 2025)
